For eight compounds, carcinogen call results are on record in PubChem BioAssay AID1259411 (Chemical Carcinogenesis Research Information System (CCRIS), 2018).

Calls of active or inactive are those of the source. No rule for the calls is given here.

In the series the test system is rodent carcinogenicity bioassays, tumor incidence. In words: CCRIS carcinogenicity studies. An outline of the steps: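 NCI-built, expert-reviewed records of carcinogenicity and related test outcomes (mutagenicity, tumor promotion/inhibition) compiled from published and report sources, historical span 1985-2011, not updated.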

For the compound `CC1=CC(=O)CC(C)(C)C1`, the carcinogen call reads like this: (Species: MOUSE, Strain/Sex: B6C3F1/FEMALE, Route: GAVAGE, Dose: 0, 250, 500 MG/KG IN CORN OIL 5 D/WK FOR 103 WK (STUDY DURATION: 105 WK), Dose: 0, 250, 500 MG/KG IN CORN OIL 5 D/WK FOR 103 WK (STUDY DURATION: 105 WK)) “inactive; negative”; (Species: MOUSE, Strain/Sex: B6C3F1/MALE, Route: GAVAGE, Dose: 0, 250, 500 MG/KG IN CORN OIL 5 D/WK FOR 103 WK (STUDY DURATION: 105 WK), Dose: 0, 250, 500 MG/KG IN CORN OIL 5 D/WK FOR 103 WK (STUDY DURATION: 105 WK), Tumor Site: Type of Lesion: LIVER: HEPATOCELLULAR ADENOMA OR CARCINOMA, INTEGUMENTARY SYSTEM: MESENCHYMAL TUMOR, HEMATOPOIETIC SYSTEM: MALIGNANT LYM, Tumor Site: Type of Lesion: LIVER: HEPATOCELLULAR ADENOMA OR CARCINOMA, INTEGUMENTARY SYSTEM: MESENCHYMAL TUMOR, HEMATOPOIETIC SYSTEM: MALIGNANT LYM) “equivocal”; (Species: RAT, Strain/Sex: F344/FEMALE, Route: GAVAGE, Dose: 0, 250, 500 MG/KG IN CORN OIL 5 D/WK FOR 103 WK (STUDY DURATION: 105 WK), Dose: 0, 250, 500 MG/KG IN CORN OIL 5 D/WK FOR 103 WK (STUDY DURATION: 105 WK)) “inactive; negative”; (Species: RAT, Strain/Sex: F344/MALE, Route: GAVAGE, Dose: 0, 250, 500 MG/KG IN CORN OIL 5 D/WK FOR 103 WK (STUDY DURATION: 105 WK), Dose: 0, 250, 500 MG/KG IN CORN OIL 5 D/WK FOR 103 WK (STUDY DURATION: 105 WK), Tumor Site: Type of Lesion: PREPUTIAL GLAND: CARCINOMA, KIDNEY: TUBULAR CELL ADENOMA OR ADENOCARCINOMA, PANCREAS: ACINAR CELL ADENOMA, Tumor Site: Type of Lesion: PREPUTIAL GLAND: CARCINOMA, KIDNEY: TUBULAR CELL ADENOMA OR ADENOCARCINOMA, PANCREAS: ACINAR CELL ADENOMA) “active; positive”.
Regarding `Nc1ccc(-c2ccccc2)cc1O`, the carcinogen call is “inactive; negative” (Species: MOUSE, Strain/Sex: SWISS/FEMALE, Route: SUBCUTANEOUS, Dose: 0, 200 UG IN 0.02 ML 3% AQUEOUS GELATIN 1/D FOR 3 D (STUDY DURATION: 52 WK)) and “active; positive” (Species: MOUSE, Strain/Sex: SWISS/MALE, Route: SUBCUTANEOUS, Dose: 0, 200 UG IN 0.02 ML 3% AQUEOUS GELATIN 1/D FOR 3 D (STUDY DURATION: 52 WK), Tumor Site: Type of Lesion: LIVER: HEPATOMA).
Take `Cc1cccc(OCC(O)CNC(C)(C)C)c1[N+](=O)[O-]` (centres undefined): the carcinogen call (Species: RAT, Strain/Sex: WISTAR/FEMALE, Route: ORAL, Dose: 0, 25, 50, 100 MG/KG DAILY BY GAVAGE FOR 3 OR 6 MO, Dose: 0, 25, 50, 100 MG/KG DAILY BY GAVAGE FOR 3 OR 6 MO, Tumor Site: Type of Lesion: LIVER: NEOPLASTIC NODULE, HEPATOCELLULAR CARCINOMA) was “active; positive”.
For `C1CC2OC2CC1C1CO1` (centres undefined), the carcinogen call is “active; positive” (Species: MOUSE, Route: DERMAL, Tumor Site: Type of Lesion: INTEGUMENTARY SYSTEM (SKIN)); “active; positive” (Species: MOUSE, Strain/Sex: B6C3F1/FEMALE, Route: DERMAL, Dose: 0, 2.5, 5, 10 MG/MOUSE IN ACETONE 5 D/WK FOR 103 WK, HIGH DOSE FEMALE MICE 85 WK (STUDY DURATION: 105 WK), Dose: 0, 2.5, 5, 10 MG/MOUSE IN ACETONE 5 D/WK FOR 103 WK, HIGH DOSE FEMALE MICE 85 WK (STUDY DURATION: 105 WK), Tumor Site: Type of Lesion: LUNG: ALVEOLAR/BRONCHIOLAR ADENOMA OR CARCINOMA, OVARY: GRANULOSA CELL TUMOR, GRANULOSA CELL TUMOR OR MALIGNANT GRANULOS); “active; positive” (Species: MOUSE, Strain/Sex: B6C3F1/MALE, Route: DERMAL, Dose: 0, 2.5, 5, 10 MG/MOUSE IN ACETONE 5 D/WK FOR 103 WK (STUDY DURATION: 105 WK), Dose: 0, 2.5, 5, 10 MG/MOUSE IN ACETONE 5 D/WK FOR 103 WK (STUDY DURATION: 105 WK), Tumor Site: Type of Lesion: SKIN (APPLICATION SITE): BASOSQUAMOUS TUMOR MALIGNANT, BASOSQUAMOUS TUMOR MALIGNANT OR BASAL CELL CARCINOMA, SQUAMOUS CE); “active; positive” (Species: RAT, Strain/Sex: F344/FEMALE, Route: DERMAL, Dose: 0, 15, 30 MG/RAT IN ACETONE 5 D/WK FOR 105 WK (STUDY DURATION: 106 WK), Dose: 0, 15, 30 MG/RAT IN ACETONE 5 D/WK FOR 105 WK (STUDY DURATION: 106 WK), Tumor Site: Type of Lesion: SKIN (APPLICATION SITE): BASAL CELL CARCINOMA, SEBACEOUS GLAND ADENOMA OR BASAL CELL CARCINOMA, SQUAMOUS CELL CARCINOMA); “active; positive” (Species: RAT, Strain/Sex: F344/MALE, Route: DERMAL, Dose: 0, 15, 30 MG/RAT IN ACETONE 5 D/WK FOR 105 WK (STUDY DURATION: 106 WK), Dose: 0, 15, 30 MG/RAT IN ACETONE 5 D/WK FOR 105 WK (STUDY DURATION: 106 WK), Tumor Site: Type of Lesion: SKIN (APPLICATION SITE): BASAL CELL ADENOMA, BASAL CELL CARCINOMA, BASAL CELL ADENOMA OR SEBACEOUS GLAND ADENOMA, SQUAMO).
Turning to `S=P(N1CCOCC1)(N1CC1)N1CC1`, the carcinogen call (Species: MOUSE, Route: INTRAPERITONEAL, Tumor Site: Type of Lesion: LUNG) was “active; positive”.
Consider `Clc1nc(Cl)nc(Nc2ccccc2Cl)n1`, for which the carcinogen call reads like this: (Species: MOUSE, Strain/Sex: B6C3F1/FEMALE, Route: ORAL, Dose: 0, 500, 1000 PPM IN DIET, Dose: 0, 500, 1000 PPM IN DIET) “inactive; negative”; (Species: MOUSE, Strain/Sex: B6C3F1/MALE, Route: ORAL, Dose: 0, 500, 1000 PPM IN DIET, Dose: 0, 500, 1000 PPM IN DIET) “inactive; negative”; (Species: Mouse, Strain/Sex: CD-1/Female, Route: Oral, Dose: 0, 50, 250, 1250 ppm in feed for 2 yrs, Dose: 0, 50, 250, 1250 ppm in feed for 2 yrs) “inactive; negative; purity 93.5%”; (Species: Mouse, Strain/Sex: CD-1/Male, Route: Oral, Dose: 0, 50, 250, 1250 ppm in feed for 2 yrs, Dose: 0, 50, 250, 1250 ppm in feed for 2 yrs) “inactive; negative; purity 93.5%”; (Species: RAT, Strain/Sex: F344/FEMALE, Route: ORAL, Dose: 0, 500, 1000 PPM IN DIET, Dose: 0, 500, 1000 PPM IN DIET) “inactive; negative”; (Species: RAT, Strain/Sex: F344/MALE, Route: ORAL, Dose: 0, 500, 1000 PPM IN DIET, Dose: 0, 500, 1000 PPM IN DIET) “inactive; negative”. Moreover, the carcinogen call (Species: Rat, Strain/Sex: Sprague Dawley/Female, Route: Oral, Dose: 0, 50, 330, 2000 ppm in feed for 104 wks, Dose: 0, 50, 330, 2000 ppm in feed for 104 wks) is “inactive; negative; purity 93.5%” and the carcinogen call (Species: Rat, Strain/Sex: Sprague Dawley/Male, Route: Oral, Dose: 0, 50, 330, 2000 ppm in feed for 104 wks, Dose: 0, 50, 330, 2000 ppm in feed for 104 wks) is “inactive; negative; purity 93.5%”.
For `Cc1cc(Cl)ccc1N`, the carcinogen call is “active; positive” (Species: MOUSE, Strain/Sex: B6C3F1/FEMALE, Route: ORAL, Dose: 0, 1250, 5000 PPM IN DIET, Dose: 0, 1250, 5000 PPM IN DIET, Tumor Site: Type of Lesion: BLOOD VESSELS: HEMANGIOMA OR HEMANGIOSARCOMA); “active; positive” (Species: MOUSE, Strain/Sex: B6C3F1/MALE, Route: ORAL, Dose: 0, 3750, 15000 PPM IN DIET, Dose: 0, 3750, 15000 PPM IN DIET, Tumor Site: Type of Lesion: BLOOD VESSELS: HEMANGIOMA OR HEMANGIOSARCOMA); “inactive; negative” (Species: RAT, Strain/Sex: F344/FEMALE, Route: ORAL, Dose: 0, 1250, 5000 PPM IN DIET, Dose: 0, 1250, 5000 PPM IN DIET); “inactive; negative” (Species: RAT, Strain/Sex: F344/MALE, Route: ORAL, Dose: 0, 1250, 5000 PPM IN DIET, Dose: 0, 1250, 5000 PPM IN DIET).
Take `CCCCNC(=O)NS(=O)(=O)c1ccc(C)cc1`: the carcinogen call by setting is: (Species: MOUSE, Strain/Sex: B6C3F1/FEMALE, Route: ORAL, Dose: 0, 25000, 50000 PPM IN DIET, Dose: 0, 25000, 50000 PPM IN DIET) “inactive; negative”; (Species: MOUSE, Strain/Sex: B6C3F1/MALE, Route: ORAL, Dose: 0, 25000, 50000 PPM IN DIET, Dose: 0, 25000, 50000 PPM IN DIET) “inactive; negative”; (Species: RAT, Strain/Sex: F344/FEMALE, Route: ORAL, Dose: 0, 12000, 24000 PPM IN DIET, Dose: 0, 12000, 24000 PPM IN DIET) “inactive; negative”; (Species: RAT, Strain/Sex: F344/MALE, Route: ORAL, Dose: 0, 12000, 24000 PPM IN DIET, Dose: 0, 12000, 24000 PPM IN DIET) “inactive; negative”.
